Test results: PubChem BioAssay AID504605 (National Center for Advancing Translational Sciences (NCATS), 2011)

Test system: mouse liver microsomes, LC-MS/MS, half-life
Assay: Inhibitors of 12-hLO: Mouse Liver Microsome Stability Profiling
Details: at 1 µM; stronger effect = higher value
Excerpt: Assay Provider: Holman, T.R., University of California, Santa Cruz Grant #: MH08128301 Screening Center PI: Austin, C.P. Screening Center: NIH Chemical Genomics Center [NCGC] Human lipoxygenase 12hLO is a member of the closely related lipoxygenase family of enzymes which catalyze the site-specific oxidation of arachidonic acid to various hormone precursor molecules and as such is a candidate for drug development in a variety of disease areas, such as cancer and inflammation. After qHTS, hits were confirmed in follow-up assays, and leads were optimized through SAR. The resulting lead compound was further characterized through a battery ADME-Tox experiments. These assay and this assay describes its mouse liver microsome stability. Mouse liver microsomes are created through broken up endoplasmic reticulum from mouse liver. These liver microsomes contain many drug metabolizing enzymes, such as Cytochome P-450s and flavin-containing monooxygenases. Because metabolism is major way of drug clearance, this is an important result.
1uM of compound in incubated in mouse liver microsome; the reference compound is ketanserin. Compounds are incubated at 37 degrees C for different time periods: 0, 5, 15, 30, 45, and 60 minutes. Samples are analyzed with LC-MS/MS.

## CC(=O)NC(c1cccs1)c1cc(Br)c2cccnc2c1O (stereo unspecified)
  half-life: 9 min
